For 78 compounds, RP-LC retention time results are on record in the METLIN SMRT retention time set (Domingo-Almenara et al. 2019).

A short description of the data set: gradient 5% acetonitrile 3 min, to 50% in 2 min, to 85% in 15 min, held 3 min, 100 µL/min. As to conditions: column: Zorbax Extend-C18 2.1 x 50 mm; eluents: water / acetonitrile, 0.1% formic acid. The essentials: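 Pure standards were run in mixtures of ~100 molecules by HPLC coupled to a quadrupole time-of-flight mass spectrometer. The column was a Zorbax Extend-C18 (2.1 × 50 mm, 1.8 μm) at 100 μL/min, with water and acetonitrile each containing 0.1% formic acid, in positive and negative ionization mode. Dead and dwell volumes were 40 μL and 900 μL. Retention time was taken from computationally picked adduct peaks, each manually inspected, with data collected over 3 months.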
`COc1ccc(-c2nc3cc(C)ccn3c2Nc2ccc(C)cc2)cc1`: the RP-LC retention time was determined as 761 s.

`COc1ccc(NC(=O)c2cc(C(C)C)n3nccc3n2)c(C)c1`: the RP-LC retention time was determined as 1250 s.

Compound `CS(=O)(=O)N1CCC(OC2CCN(C(=O)Nc3ccc(Cl)cc3F)CC2)CC1` registered an RP-LC retention time of 783 s.

Turning to `COc1ccc(NC(=O)N(C)CCc2noc(COc3cc(C)cc(C)c3)n2)cc1`, the RP-LC retention time worked out at 907 s.

`CCN(CC)c1nc2ccsc2c(=O)n1CCC(=O)N1CCN(c2ccccn2)CC1` displayed an RP-LC retention time of 683 s.

On to `Cc1ccc(S(=O)(=O)c2cnc(N3CCN(c4ccccn4)CC3)nc2N)cc1C`, for which the RP-LC retention time amounted to 677 s.

Compound `O=C(C1CCCO1)N1CCC(Cc2nncn2CC2CC2)CC1` (stereo not drawn) had an RP-LC retention time of 578 s.

`O=C(c1cn2c(n1)CSCC2)N(Cc1ccccc1)Cc1ccco1`: the RP-LC retention time was found to be 736 s.

`O=C(NC1CCCCCCC1)C1CCCN(S(=O)(=O)c2c[nH]c(C(=O)N3CCCCCC3)c2)C1` (stereo not drawn) displayed an RP-LC retention time of 980 s.

As for `CCOc1nc2ccccc2nc1N1CCCC(C(=O)Nc2ccc(NC(C)=O)cc2)C1` (stereo not drawn), the RP-LC retention time worked out at 908 s.

Compound `CC(C)c1ccc(N2C(=O)C3N=NN(Cc4nc(-c5ccc6c(c5)OCO6)no4)C3C2=O)cc1` (stereo not drawn) yielded an RP-LC retention time of 1060 s.

`COC(CNC(=O)c1cc(C)nn1-c1ccccc1)OC` had an RP-LC retention time of 659 s.

On to `NC(=O)CCC(C(=O)O)N1C(=O)C2C3CCC(C3)C2C1=O` (stereo not drawn), for which the RP-LC retention time came to 638 s.

In the case of `O=c1c2sccc2n(Cc2nc(-c3ccc(C(F)(F)F)cc3)no2)c(=O)n1CCc1ccccc1`, the RP-LC retention time worked out at 1270 s.

As to `O=C(Nc1ccc(F)cc1)Nc1ccc2nc3n(c(=O)c2c1)CCC3`, the RP-LC retention time was 688 s.

Compound `CCc1nn2c(CNS(=O)(=O)c3ccc(OC)cc3)c(-c3ccccc3)nc2s1` gave an RP-LC retention time of 886 s.

Compound `Cc1ccc(NS(=O)(=O)c2ccc3c(c2)CCCC(=O)N3)cc1Cl` returned an RP-LC retention time of 806 s.

For the compound `COc1ccccc1-c1cc(C(N)=O)c2cccc(C)c2n1`, the RP-LC retention time is 828 s.

Compound `CCOc1ccc(NC(=O)C2CCN(S(=O)(=O)c3ccc4c(c3)NC(=O)C(CC)O4)CC2)cc1` (stereo not drawn) yielded an RP-LC retention time of 888 s.

The compound `CCc1ccccc1NC(=O)COc1cc(C)nc(N2CCN(c3ccccc3)CC2)n1` showed an RP-LC retention time of 935 s.

Regarding `CCCNS(=O)(=O)c1cc2c(cc1C)CCN2C(=O)CC`, the RP-LC retention time is 818 s.

For `CSc1ccc(Cl)c(C(=O)NCCc2cn(C)c3ncccc23)c1`, the RP-LC retention time worked out at 724 s.

`O=C(NC1CC1)c1nc(C(=O)N2CCN(c3ccccc3F)CC2)cs1` showed an RP-LC retention time of 818 s.

`COc1ccc(NC(=O)NCCc2nc3cccnc3n2C2CCCC2)cc1OC` displayed an RP-LC retention time of 647 s.

`Brc1ccc(-c2noc(Cc3nc(-c4ccc5c(c4)OCO5)cs3)n2)cc1` registered an RP-LC retention time of 1270 s.

Compound `CC(C)NC(=O)N1CCCC(c2cccc(C(=O)NCc3ccccc3C(F)(F)F)c2)C1` (stereo not drawn) came in with an RP-LC retention time of 966 s.

Consider `CCN(CC)C(=O)c1cc(=O)[nH]c2c(C)cccc12`, for which the RP-LC retention time worked out at 657 s.

The compound `O=C1NC2(CCN(C(=O)NCc3cccc(F)c3)CC2)Nc2cc(Cl)ccc21` yielded an RP-LC retention time of 770 s.

The compound `COc1ccc(-c2nc3cnccn3c2Nc2cccc(C(=O)NCc3ccco3)c2)cc1` had an RP-LC retention time of 741 s.

Turning to `Cc1noc(C)c1Cc1ccc(C(=O)N2CCc3nn(C)c(=O)n3CC2)o1`, the RP-LC retention time turned out to be 633 s.

`CCCCOc1ccc(-c2nc(C3CC(=O)N(c4ccc(OC)c(OC)c4)C3)no2)cc1` (stereo not drawn): the RP-LC retention time was 1120 s.

`CN1c2ccc(Cl)cc2C(=O)NC12CCN(C(=O)c1ccc(F)cc1)CC2` gave an RP-LC retention time of 818 s.

In turn, `Cc1ccc(CCC(=O)Nc2nc(-c3ccc4c(c3)NC(=O)C(C)O4)cs2)cc1` (stereo not drawn) showed an RP-LC retention time of 973 s.

In the case of `Cc1ccc(N2CCN(C(=O)c3ccc(Cn4cncn4)cc3)CC2)c(C)c1`, the RP-LC retention time amounted to 867 s.

`Cc1ccc(S(=O)(=O)N2C[C@H]3CN(C(=O)Nc4cccc(C)c4)C[C@@H](C2)O3)cc1` gave an RP-LC retention time of 852 s.

As for `COc1ccc(NC(=O)C2CN(S(=O)(=O)C3CC3)CC23CCCCC3)c(OC)c1` (stereo not drawn), the RP-LC retention time amounted to 961 s.

For the compound `O=C(Nc1cccc(-c2cn3cccnc3n2)c1)c1cccc(Br)c1`, the RP-LC retention time was 728 s.

The compound `CCn1ncc(NC(=O)COc2cccc(C)c2C)c(N2CCCCC2)c1=O` yielded an RP-LC retention time of 1230 s.

`Cc1nnc(N2CCCC(C(=O)NCc3ccc(Cl)cc3)C2)c2nn(-c3ccccc3)c(C)c12` (stereo not drawn) registered an RP-LC retention time of 760 s.

In turn, `O=c1c2cc(-c3ccc(F)cc3)nn2cnn1Cc1nc(-c2ccc(Cl)cc2)no1` came in with an RP-LC retention time of 1190 s.

In turn, `CCc1sc(NC(=O)Cc2ccc(C)cc2)nc1-c1ccccc1` registered an RP-LC retention time of 1150 s.

For the compound `CCOc1ccc(C2Cn3nnc(-c4nc(-c5ccccc5C)no4)c3CO2)cc1` (stereo not drawn), the RP-LC retention time came to 1270 s.

Compound `COc1ccccc1NC(=O)C1CCN(S(=O)(=O)c2c(C)nn(-c3ccccc3)c2C)CC1` came in with an RP-LC retention time of 981 s.

`Cc1cc(C)n(-c2nc(CC(=O)N3CCc4ccccc4C3)cs2)n1` had an RP-LC retention time of 970 s.

For `Cc1ccc2c(NCc3ccccc3)c(-c3nc(C4CC4)no3)cnc2n1`, the RP-LC retention time came out at 755 s.

`O=C(O)c1cc2c(s1)CCN(C(=O)c1ccc(Cl)cc1)C2`: the RP-LC retention time is 736 s.

Consider `CCN(C(=O)Cn1cnc2nc3c(cc2c1=O)CCCC3)c1cccc(Cl)c1`, for which the RP-LC retention time is 850 s.

`O=C(NCCc1ccccc1)C1CCCN(C(=O)Cc2cccc3ccccc23)C1` (stereo not drawn) showed an RP-LC retention time of 906 s.

Compound `CCc1csc(-c2ccc(S(=O)(=O)NC(CC)c3cccs3)s2)n1` (stereo not drawn) registered an RP-LC retention time of 1150 s.

`Cc1ccc(Nc2c(-c3ccc4c(c3)OCO4)nc3cnccn23)c(C)c1`: the RP-LC retention time was determined as 933 s.

Compound `Cc1ccc2nc(-c3ccc(Cl)cc3)c(Nc3ccc4c(c3)OCCO4)n2c1` gave an RP-LC retention time of 735 s.

Turning to `Cc1sc2ncnc(N3CCCC(C)C3)c2c1C(=O)Nc1ccc(Cl)cc1F` (stereo not drawn), the RP-LC retention time came out at 1330 s.

Regarding `Cc1ccsc1C(=O)N1CCN(c2cc(-c3ccc(Cl)cc3)[nH]n2)CC1`, the RP-LC retention time is 749 s.

In turn, `COc1ccc(NC(=O)c2cc(C)n3nc(-c4ccco4)cc3n2)cc1OC` came in with an RP-LC retention time of 933 s.

Take `O=C(c1ccccc1F)N1CCC(c2nc(-c3ccccc3)no2)C1` (stereo not drawn): the RP-LC retention time was 911 s.

On to `COc1ccc(CCNc2nc3ccncc3n(C(C)C)c2=O)cc1OC`, for which the RP-LC retention time worked out at 631 s.

For the compound `O=C(CCc1c[nH]c2ccccc12)N1CC(n2ccnc2)C1`, the RP-LC retention time worked out at 588 s.

For `COc1cc2nccc(Oc3ccc(NC(=O)Nc4ccc(F)cc4F)c(F)c3)c2cc1OC`, the RP-LC retention time is 782 s.

Compound `COc1cc(=O)c(C(N)=O)nn1-c1ccc(C)cc1` showed an RP-LC retention time of 612 s.

In turn, `COc1ccc(OC)c(NC(=O)C2=Cc3cc(Br)ccc3OC2)c1` had an RP-LC retention time of 1150 s.

As for `CC1CCC(NC(=O)C2CCCN2S(=O)(=O)c2cc3c(cc2Cl)NC(=O)CO3)CC1` (stereo not drawn), the RP-LC retention time came to 840 s.

Consider `CCOc1ccc(-c2cc3c(=O)n(Cc4nc(-c5ccccc5Br)no4)ncn3n2)cc1`, for which the RP-LC retention time came out at 1160 s.

In turn, `CCOc1ccc(-n2c(N3CCSC3)nc3cc(C(=O)OC)ccc3c2=O)cc1` had an RP-LC retention time of 1120 s.

As to `Cc1cccc(CNS(=O)(=O)c2c(C)sc(C)c2-c2n[nH]c(C)c2C)c1`, the RP-LC retention time came to 1070 s.

On to `CCc1ccccc1NC(=O)C1CCN(S(C)(=O)=O)c2cc(Cl)ccc2O1` (stereo not drawn), for which the RP-LC retention time was determined as 944 s.

On to `Cc1ccccc1CC(=O)N1CCCC(COc2ccc(C(=O)N3CCOCC3)cc2)C1` (stereo not drawn), for which the RP-LC retention time amounted to 811 s.

As for `COc1ccc(-n2ncc3c(NC4CC4)ncnc32)cc1`, the RP-LC retention time turned out to be 619 s.

For the compound `CCOC(=O)c1c(NC(=O)CN2CCN(c3ncccn3)CC2)sc2c1CCC2`, the RP-LC retention time was found to be 1080 s.

On to `CCOc1ccc(-n2ccn3cc(-c4ccc(C)c(C)c4)nc3c2=O)cc1`, for which the RP-LC retention time is 938 s.

With `Cc1c(Cl)cccc1S(=O)(=O)N1CCN(c2nc3ccncc3n(C)c2=O)CC1`, the RP-LC retention time was found to be 732 s.

Turning to `CC(=O)Nc1ccc(S(=O)(=O)N2CCc3c(c(-c4nnc(-c5ccccc5)o4)nn3C)C2)cc1`, the RP-LC retention time was determined as 775 s.

In turn, `CC(=O)c1ccc2c(c1)[C@H](NC(=O)c1ccc(F)c(Cl)c1)[C@H](O)C(C)(C)O2` had an RP-LC retention time of 944 s.

With `CC(C)C(=O)OC[C@H]1O[C@@H](n2ccc(N)nc2=O)[C@](C)(F)[C@@H]1OC(=O)C(C)C`, the RP-LC retention time is 799 s.

As for `COc1ccc(C)cc1NC(=O)NCCc1cn(C)c2ncccc12`, the RP-LC retention time came to 676 s.

The compound `CCOc1ccc(Cc2nc(-c3ccc4c(c3)N(CC)C(=O)CO4)no2)cc1OCC` yielded an RP-LC retention time of 1070 s.

Compound `Cc1ccc(Sc2nccnc2N2CCCC(C(=O)Nc3ccc(C)cc3C)C2)cc1` (stereo not drawn) returned an RP-LC retention time of 1150 s.

Take `c1ccc2c(-c3nnc(C4CC4)o3)nnc(NC3CCCCC3)c2c1`: the RP-LC retention time came to 793 s.

The compound `Cn1cc(-c2cc3n(n2)CCC(=O)N3CCCC(=O)NC2CCCCC2)c2ccccc21` returned an RP-LC retention time of 847 s.
